Laboratory results as given in PubChem BioAssay AID1033 (Sanford-Burnham Center for Chemical Genomics, 2008).
Activity calls are given as the source filed them. No rule for the calls is given here.

What follows are compounds tested against Chaperone protein DnaK (Escherichia coli (strain K12)) (UniProt P0A6Y8) (assay: E. coli DnaK SBD ligand binding – biophysical, NMR, chaperone (AID 1033)). Conditions: Purified DnaK SBD.
Chaperone protein DnaK (Escherichia coli (strain K12)), sequence (P0A6Y8 whole entry, looked up): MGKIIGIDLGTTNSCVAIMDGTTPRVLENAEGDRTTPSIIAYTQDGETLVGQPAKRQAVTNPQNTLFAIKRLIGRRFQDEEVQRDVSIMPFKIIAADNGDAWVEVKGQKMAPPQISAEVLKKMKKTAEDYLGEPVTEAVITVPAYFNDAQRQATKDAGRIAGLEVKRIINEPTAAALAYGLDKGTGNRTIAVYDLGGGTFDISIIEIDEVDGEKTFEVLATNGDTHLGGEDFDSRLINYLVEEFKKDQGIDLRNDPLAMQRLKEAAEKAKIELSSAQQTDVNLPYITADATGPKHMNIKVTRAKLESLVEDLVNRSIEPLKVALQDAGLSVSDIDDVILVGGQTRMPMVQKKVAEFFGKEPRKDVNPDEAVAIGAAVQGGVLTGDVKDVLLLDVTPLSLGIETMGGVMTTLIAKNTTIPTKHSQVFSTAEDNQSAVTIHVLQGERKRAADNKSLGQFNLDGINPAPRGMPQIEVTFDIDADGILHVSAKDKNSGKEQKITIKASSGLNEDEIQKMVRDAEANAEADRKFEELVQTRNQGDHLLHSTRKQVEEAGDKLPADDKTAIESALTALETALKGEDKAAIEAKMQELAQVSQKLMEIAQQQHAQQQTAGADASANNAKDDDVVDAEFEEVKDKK

Row | Compound | Kd
1 | COc1ccc(-c2cc(=O)c3c(OC)c(OC)c(OC)c(OC)c3o2)cc1OC | > 4 mM (inactive)
2 | O=c1[nH]c2sc3c(c2c2nncn12)CCCC3 | > 4 mM (inactive)
3 | Cc1cccc(C)c1NC(=O)CN1CCOCC1 | > 4 mM (inactive)
4 | O=C(c1ccccc1)c1cncc(Br)c1 | > 4 mM (inactive)
5 | CC1(C)CC[C@]2(C(=O)O)CC[C@]3(C)C(=CCC4[C@@]5(C)CC[C@@H](O)C(C)(C)C5CC[C@]43C)C2C1 (some centres not stated) | > 4 mM (inactive)
6 | NC(=O)CN1CC(=O)NC(=O)C1 | > 4 mM (inactive)
7 | CN1CCN(C(=O)c2ccccc2N)CC1 | > 4 mM (inactive)
8 | CCC(C)C(NC)C(=O)O (configuration not stated) | > 4 mM (inactive)
9 | CCNC(=S)N1CCCC(C(N)=O)C1 (configuration not stated) | > 4 mM (inactive)
10 | OC12CC3CC(C1)C1(NCCS1)C(C3)C2 (configuration not stated) | > 4 mM (inactive)
11 | c1ccc2c(NC3=NCCS3)cccc2c1 | > 4 mM (inactive)
12 | COc1ccc2c(c1OC)C(=O)OC2[C@H]1c2c(cc3c(c2OC)OCO3)CCN1C (some centres not stated) | > 4 mM (inactive)
